Test results reported in patent publication US10864248B2, “Dab2 inhibitors for the prevention and treatment of cystic fibrosis” (Trustees of Dartmouth College, priority 2014, dated 2020).
Like-named read-outs stand apart in the source and are kept apart here. Each block holds one molecule with its values, some of them ahead of it. Peptide text beside a SMILES is read from it. * marks the point of attachment. Biotin = O=C1N[C@H]2[C@H](CS[C@H]2CCCCC(=O)*)N1; Ahx = NCCCCCC(=O)O

Columns and labels:
Dab2-DH domain [1] = molecular target: T1, Dab2-DH domain (Homo sapiens (Human), UniProt P98082); experiment: Fluorescence polarization competition assay to identify small molecule inhibitors; type: binding; set-up: key to Ki: n.a., not active; +, fluorescence change with FP; conditions: FP competition
Procedure: Fluorescence Polarization Competition Assay to Identify Small Molecule Inhibitors. […] Unlabeled competitor peptide (STA02) or compound hits were serially diluted and mixed with the protein-reporter mix. Percent DMSO in all samples was 1%. Plates were mixed by vibration, centrifuged at 1200 g for 2 minutes and allowed to equilibrate at room temperature for 30-45 minutes before measurement. Fluorescence polarization was measured at an excitation wavelength of 470±5 nm and an emission wavelength of 525±20 nm. Data analysis and calculation of binding affinities were as described above.
To test the validity of these hits on a smaller scale and to quantify the binding potencies (Ki values), an FP competition assay was carried out.

CFBE cells = experiment: Toxicity assay (LDH); type: cell-based, human; conditions: for toxicity, of maximum toxicity (1% TRITON): 3 or 12 hours
Procedure: Toxicity and Cell Viability Assays. CFBE cells were seeded at 5×10^3 in 96-well plates. Cells were treated in fetal bovine serum (FBS)-free minimum essential medium (MEM, Gibco). Assays were performed and measured according to the CYTOTOX 96 Non-Radioactive cytotoxicity Assay (G1780) kit (Promega) and the […] 96 Aqueous One solution Cell proliferation Assay kit (Promega) instructions. Percent toxicity for the LDH assay was calculated as: […]
A background signal of 0.2% DMSO in media from a well without cells was subtracted from all readings before the above-referenced calculations.

ΔF508-CFTR = ΔF508-CFTR (Homo sapiens (Human), UniProt P13569, DEL508-508); experiment: Short-circuit current (Isc), chloride currents in combination therapy; conditions: for chloride currents: 20 μM, in parallel with VX809 0.1 μM (48 hours) and Kalydeco (acutely), CFBE cells
Dab2-DH domain [2] = molecular target: T1, Dab2-DH domain; experiment: Fluorescence polarization competition binding of unlabeled peptides (reporter F*-STA02); conditions: STA02 compared to STA01
Procedure: Fluorescence Polarization. Fluorescence polarization (FP) data were measured on a microplate reader (Tecan Infinite M1000, Mannedorf, Switzerland) at 27° C. […] Plates were mixed by vibration, centrifuged for 2 minutes at 1200 g to remove air bubbles and allowed to equilibrate for 30 minutes at room temperature before measurement. […] Unlabeled competitor peptides were serially diluted and mixed with the protein-reporter mix. […] [formula] where [P]tot=total protein concentration and Kd=equilibrium dissociation constant of [PL]. Competition isotherms were fit using a non-linear least-squares algorithm implemented in EXCEL using the SOLVER function. rexp was fit to: [formula] where the free protein concentration [P] in the presence of both the reporter and competitive inhibitor was calculated as a function of the total protein and ligand concentrations and the equilibrium dissociation constant Kd (known) and Ki (fit), respectively, by exact analytical solution of the resulting cubic equation (Wang, et al. (1995) Biotechnol. Prog. 11:558-64).

Dab2-DH domain [3] = molecular target: T1, Dab2-DH domain; experiment: Isothermal titration calorimetry; type: binding
Procedure: Isothermal Titration calorimetry. Dab2-DH protein was dialyzed versus 150 mM NaCl, 25 mM Tris pH 8.0, and 0.02% NaN3 or 150 mM NaCl, 25 mM NaH2PO4/Na2HPO4 pH 7.4, and 0.02% NaN3. Peptides were solubilized in recovered and degassed dialysis buffer. […] Thus, to maintain a constant DMSO concentration between the cell chamber (protein solution) and the syringe (peptide solution), 1-2% DMSO was added to the ITC-protein solution. Experiments were performed at 15, 25, or 35±0.2° C. on a MICROCAL VP-ITC calorimeter. A 2 μL peptide injection over 4.1 seconds preceded 30-10 μL injections over 300 seconds each. The system was allowed to equilibrate (reach baseline) between injections for 300 seconds while stirring at a speed of 300 rpm. ITC thermograms were fit to a single-site binding model using Origin software package v11. The ITC data were presented by showing the baseline-adjusted titration as heat flow versus time (top) and the peak-integrated concentration-normalized molar heat flow per injection versus the peptide: protein molar ratio (bottom). To account for the contribution of protein, peptide, and buffer protonation enthalpies to the binding enthalpies and consequently the binding constants, titrations in buffers with known and distinct heats of ionization (Tris and Phosphate buffers) were conducted.

CF patients = conditions: in combination with KALYDECO; cited from earlier work
[4] = system: subjects with the G551D mutation; conditions: 48-week clinical trial; cited from earlier work
p67-isoform of Dab2 = p67-isoform of Dab2 (Homo sapiens (Human), UniProt P98082); experiment: Peptide pull-down from CFBE cell lysates and western blot; type: binding; conditions: CFBE cell lysates, western blot
Procedure: (§1) Peptide Pull-down and Western Blotting. Streptavidin-paramagnetic particles (Promega) were washed twice with wash buffer (50 mM Tris pH 8.0, 150 mM NaCl, 2 mM EGTA, 2 mM EDTA, 5% glycerol, 1 mM DTT) and incubated with 20 μM BT-STA02 (N-terminally biotinylated STA02) for 1 hour on a rotator at 4° C. Beads were then washed twice with wash buffer and once with lysis buffer (50 mM Tris pH 8.0, 150 mM NaCl, 2 mM EGTA, 2 mM EDTA, 5% glycerol, 1 mM DTT, 1% IGEPAL, complete protease inhibitor tablet (Roche)) before incubation with cell lysate. CFBE cells were washed twice with cold PBS, incubated with lysis buffer for 20 minutes shaking at 4° C., scraped, passed through a 27G1/2 syringe, and spun at 13000 rpm for 15 minutes at 4° C. The supernatant was incubated with BT-STA02-coated beads for 2 hours on a rotator at 4° C. Beads were then washed twice with wash buffer and bound protein was eluted with Laemmli sample buffer (Bio-Rad) at 45° C. for 10 minutes. Samples were run on a 7.5% SDS-PAGE gel and probed with anti-Dab2 (BD Biosciences) or anti-p96 Dab2 (Epitomics).
(§2) Since Dab2 is a multi-modular adaptor protein, it was determined whether STA02 binding to the DH domain occurred with the full-length (FL) protein and in the context of other cellular interacting partners. To this end, the binding of STA02 to FL-Dab2 from bronchial epithelial (CFBE) cell lysates was tested in a pull-down assay. […]

p96-isoform of Dab2 = p96-isoform of Dab2 (Homo sapiens (Human), UniProt P98082); experiment: as above; type: binding; conditions: CFBE cell lysates, western blot
Procedure: as §1, §2

[5] = reporter F*-STA02, read-out: Ki

T1 sequence (P98082 33-191): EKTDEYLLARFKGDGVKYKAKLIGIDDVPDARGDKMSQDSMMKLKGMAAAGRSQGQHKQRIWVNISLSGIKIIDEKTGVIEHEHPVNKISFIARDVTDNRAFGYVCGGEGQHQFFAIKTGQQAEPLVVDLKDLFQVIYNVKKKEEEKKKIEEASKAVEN
Chain of p67-isoform of Dab2 (P98082 other isoform, or with tags, fused parts or gaps): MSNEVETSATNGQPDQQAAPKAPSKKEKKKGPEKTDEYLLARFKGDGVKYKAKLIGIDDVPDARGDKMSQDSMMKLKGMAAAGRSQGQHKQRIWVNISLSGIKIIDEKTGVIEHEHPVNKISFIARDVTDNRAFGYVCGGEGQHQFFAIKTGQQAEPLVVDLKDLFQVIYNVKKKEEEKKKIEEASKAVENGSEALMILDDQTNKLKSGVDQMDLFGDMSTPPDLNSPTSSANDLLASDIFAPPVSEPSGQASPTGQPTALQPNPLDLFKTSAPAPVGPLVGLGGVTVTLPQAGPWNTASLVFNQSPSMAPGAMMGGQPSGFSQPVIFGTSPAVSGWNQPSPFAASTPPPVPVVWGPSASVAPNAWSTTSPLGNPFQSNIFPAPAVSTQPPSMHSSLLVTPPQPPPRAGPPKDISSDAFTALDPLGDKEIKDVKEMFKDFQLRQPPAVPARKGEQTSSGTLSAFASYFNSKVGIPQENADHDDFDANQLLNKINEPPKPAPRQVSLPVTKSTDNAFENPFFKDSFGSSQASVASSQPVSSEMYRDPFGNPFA
Chain of p96-isoform of Dab2 (P98082 whole entry, canonical isoform): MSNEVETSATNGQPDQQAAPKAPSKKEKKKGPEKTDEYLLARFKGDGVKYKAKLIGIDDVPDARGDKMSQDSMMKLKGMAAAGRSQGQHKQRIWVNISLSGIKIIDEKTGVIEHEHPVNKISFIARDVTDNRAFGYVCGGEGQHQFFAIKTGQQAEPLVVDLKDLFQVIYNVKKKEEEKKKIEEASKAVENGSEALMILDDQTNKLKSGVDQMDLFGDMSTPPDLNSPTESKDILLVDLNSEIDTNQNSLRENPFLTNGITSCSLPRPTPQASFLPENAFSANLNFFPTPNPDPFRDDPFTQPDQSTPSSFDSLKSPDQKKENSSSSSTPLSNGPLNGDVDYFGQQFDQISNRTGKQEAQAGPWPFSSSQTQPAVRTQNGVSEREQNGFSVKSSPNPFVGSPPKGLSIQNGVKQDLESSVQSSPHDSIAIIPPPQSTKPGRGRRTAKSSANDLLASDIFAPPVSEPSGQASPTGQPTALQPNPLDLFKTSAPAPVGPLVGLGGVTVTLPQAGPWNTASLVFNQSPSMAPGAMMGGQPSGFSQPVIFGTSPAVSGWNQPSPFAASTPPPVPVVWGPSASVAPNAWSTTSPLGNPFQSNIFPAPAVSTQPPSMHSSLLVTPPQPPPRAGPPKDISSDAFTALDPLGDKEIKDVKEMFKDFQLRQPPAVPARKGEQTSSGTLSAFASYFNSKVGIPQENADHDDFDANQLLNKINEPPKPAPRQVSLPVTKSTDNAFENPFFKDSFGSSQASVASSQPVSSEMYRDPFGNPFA

SMILES: CN1CCc2cccc3c2[C@@H]1Cc1ccc(O)c(O)c1-3.Cl [Compound 1, S(+)-10,11-Dihydroxyaporphine Hydrochloride]
- Ki (Dab2-DH domain [1]; [5]): 1920 nM
- toxicity, of maximum toxicity (1% TRITON) (CFBE cells; 40 μM): 10%
- toxicity (CFBE cells; 40 μM, 24 hours): 20-40%
- chloride currents (ΔF508-CFTR): enhanced chloride currents

SMILES: Cc1ccc(NC(=O)C2(c3ccc4c(c3)OC(F)(F)O4)CC2)nc1-c1cccc(C(=O)O)c1 [Lumacaftor, 3-{6-{[1-(2,2-difluoro-1,3-benzodioxo1-5-yl)cyclopropanecarbonyl]amino}-3-methylpyridin-2-yl}benzoic acid]
- patients with >5% increase in FEV1 (CF patients): 55%
- patients with >10% increase in FEV1 (CF patients): 25%

SMILES: CC(C)(C)c1cc(C(C)(C)C)c(NC(=O)c2c[nH]c3ccccc3c2=O)cc1O [KALYDECO, N-(2,4-Di-tert-butyl-5-hydroxyphenyl)-4-oxo-1,4-dihydroquinoline-3-carboxamide]
- drop in pulmonary exacerbations [4]: 55%
- improvement in lung function (predicted FEV1) [4]: 10.6%
- reduction in sweat chloride [4]: 48 mEq/L

SMILES: C[C@]12CC[C@@H]3c4cc(O)c(O)cc4CC[C@H]3[C@@H]1CC[C@@H]2O [Compound 2, 2-Hydroxyestradiol]
- toxicity, of maximum toxicity (1% TRITON) (CFBE cells; 40 μM): 10%

Continued, in another order:

- Ki (Dab2-DH domain [1]; symbols): +
- total fluorescence (Dab2-DH domain [1]; Ki not obtained): increased total fluorescence
SMILES: OCCN(CCO)c1nc(N2CCCCC2)c2nc(N(CCO)CCO)nc(N3CCCCC3)c2n1 [Compound 5, Dipyridamole]

- increase in binding affinity (Dab2-DH domain [2]): 2 fold
- net release of protons during binding (NH+) (Dab2-DH domain [3]; Tris and phosphate buffers): 0.04 per mole
- ΔH (Dab2-DH domain [3]; Tris buffer, 25° C.): -20.7 ± 1.45 kcal/mol
- ΔS (Dab2-DH domain [3]; Tris buffer, 25° C.): −37.8 cal/mol/K
- TΔS (Dab2-DH domain [3]; estimated, 37° C.): -16.1 kcal/mol
- ΔG (Dab2-DH domain [3]; estimated, 37° C.): -8.9 kcal/mol
- ΔH (Dab2-DH domain [3]; estimated, 37° C.): -25.0 kcal/mol
- change of heat capacity, ΔCp (Dab2-DH domain [3]; from ΔH at 15, 25, and 35° C.): −320 cal/mol/K
SMILES: CSCC[C@H](NC(=O)[C@H](CC(N)=O)NC(=O)[C@H](CCC(=O)O)NC(=O)[C@H](CCC(N)=O)NC(=O)[C@@H]1CCCN1C(=O)[C@H](CCC(N)=O)NC(=O)[C@H](Cc1ccc(O)cc1)NC(=O)[C@H](CC(N)=O)NC(=O)[C@@H]1CCCN1C(=O)[C@H](CC(N)=O)NC(=O)[C@H](CC(=O)O)NC(=O)[C@H](Cc1ccccc1)NC(=O)CNC(=O)[C@H](CC(N)=O)NC(=O)[C@@H](N)CCC(N)=O)C(=O)N[C@@H](CCC(N)=O)C(=O)N[C@@H](C)C(=O)O [STA02]

- binding of p67-isoform of Dab2 (p67-isoform of Dab2): did not
- binding of p96-isoform of Dab2 (p96-isoform of Dab2): bound
SMILES: CSCC[C@H](NC(=O)[C@H](CC(N)=O)NC(=O)[C@H](CCC(=O)O)NC(=O)[C@H](CCC(N)=O)NC(=O)[C@@H]1CCCN1C(=O)[C@H](CCC(N)=O)NC(=O)[C@H](Cc1ccc(O)cc1)NC(=O)[C@H](CC(N)=O)NC(=O)[C@@H]1CCCN1C(=O)[C@H](CC(N)=O)NC(=O)[C@H](CC(=O)O)NC(=O)[C@H](Cc1ccccc1)NC(=O)CNC(=O)CNC(=O)[C@H](CO)NC(=O)CNC(=O)[C@H](CO)NC(=O)CCCCCNC(=O)CCCC[C@@H]1SC[C@@H]2NC(=O)N[C@@H]21)C(=O)N[C@@H](CCC(N)=O)C(=O)N[C@@H](C)C(=O)O [BT-STA02] ({Biotin-Ahx}-SGSGGFDNPNYQPQENMQA-OH; C-terminus assumed)

- Ki (Dab2-DH domain [1]; [5]): 779 nM
- Ki (Dab2-DH domain [1]; read-out: binding affinity (Ki)): 779 nM
- benefit compared to VX809 (ANOVA, P<0.05) (ΔF508-CFTR; 20 μM in combination with VX809 0.1 μM): statistically significant benefit
- chloride currents (ΔF508-CFTR): enhanced chloride currents
SMILES: CC1(C)Cc2ccccc2-c2n[nH]c(=S)n21 [Compound 3, 5,5-dimethyl-5,6-dihydro [1,2,4]triazolo[3,4-a] isoquinoline-3(2H)-thione]
- toxicity (CFBE cells; 3 hours): no toxicity
